Patent USRE40086E1, “Method for treating bacterial infection with novel 7-substituted-9-substituted amino 6-demethyl-6-deoxytetracyclines” (Wyeth Holdings Corporation, priority 1991, dated 2008)
In brackets after ≈: the same amount, converted by molar mass.

Assays:
Assay in all cases: MIC, agar dilution
Assay type in all cases: cell-based
[1] = system: S. aureus UBMS 88-5 (tetM); settings: S. aureus UBMS 88-5 (tetM)
[2] = system: S. aureus UBMS 88-4 (Sensitive); settings: S. aureus UBMS 88-4 (Sensitive)
E. faecalis ATCC 29212 = settings: E. faecalis ATCC 29212
[3] = system: S. aureus UBMS 90-1 (tetM); settings: S. aureus UBMS 90-1 (tetM)
[4] = system: E. coli UBMS 88-2 (Sensitive); settings: E. coli UBMS 88-2 (Sensitive)
E. coli ATCC 25922 = settings: E. coli ATCC 25922
[5] = system: S. haemolyticus AVAH 88-3; settings: S. haemolyticus AVAH 88-3
E. coli UBMS 89-1 (tetM) = settings: E. coli UBMS 89-1 (tetM)
[6] = system: S. aureus Smith (Sensitive); settings: S. aureus Smith (Sensitive)
[7] = system: S. aureus ATCC 29213 (Sensitive); settings: S. aureus ATCC 29213 (Sensitive)
[8] = system: E. coli UBMS 89-2 (Sensitive); settings: E. coli UBMS 89-2 (Sensitive)
[9] = system: S. aureus UBMS 88-7 (tetK); settings: S. aureus UBMS 88-7 (tetK)
[10] = system: S. aureus UBMS 90-3 (Sensitive); settings: S. aureus UBMS 90-3 (Sensitive)
E. coli UBMS 88-1 (tetB) = settings: E. coli UBMS 88-1 (tetB)
[11] = system: S. aureus IVES 2943 (meth. resistant); settings: S. aureus IVES 2943 (meth. resistant)
[12] = system: S. aureus IVES 1983 (meth. resistant); settings: S. aureus IVES 1983 (meth. resistant)
[13] = system: S. aureus UBMS 90-2 (tetM); settings: S. aureus UBMS 90-2 (tetM)
E. faecalis 12201 = settings: E. faecalis 12201

Structure (SMILES) | MIC [1] | MIC [2] | MIC (E. faecalis ATCC 29212) | MIC [3] | MIC [4] | MIC (E. coli ATCC 25922) | MIC [5] | MIC (E. coli UBMS 89-1 (tetM)) | MIC [6] | MIC [7] | MIC [8] | MIC [9] | MIC [10] | MIC (E. coli UBMS 88-1 (tetB)) | MIC [11] | MIC [12] | MIC [13] | MIC (E. faecalis 12201)
CN(C)c1cc(NS(=O)(=O)c2ccc([N+](=O)[O-])cc2)c(O)c2c1CC1CC3C(N(C)C)C(O)=C(C(N)=O)C(=O)C3(O)C(O)=C1C2=O (stereo not shown) [AA, 7-(Dimethylamino)-9-[[(4-nitrophenyl)sulfonyl]amino]-6-demethyl-6-deoxytetracycline] | 0.12 µg/mL (≈ 0.182 µM) | 0.12 µg/mL (≈ 0.182 µM) | 0.12 µg/mL (≈ 0.182 µM) | 0.5 µg/mL (≈ 0.76 µM) | 8 µg/mL (≈ 12.2 µM) | 4 µg/mL (≈ 6.08 µM) | 2 µg/mL (≈ 3.04 µM) | 4 µg/mL (≈ 6.08 µM) | 0.12 µg/mL (≈ 0.182 µM) | 0.12 µg/mL (≈ 0.182 µM) | 16 µg/mL (≈ 24.3 µM) | 2 µg/mL (≈ 3.04 µM) | 0.06 µg/mL (≈ 0.0912 µM) | 16 µg/mL (≈ 24.3 µM) | 4 µg/mL (≈ 6.08 µM) | 8 µg/mL (≈ 12.2 µM) | 0.12 µg/mL (≈ 0.182 µM) | 
CN(C)C1C(O)=C(C(N)=O)C(=O)C2(O)C(O)=C3C(=O)c4c(O)c(NC=O)cc(I)c4CC3CC12.O=S(=O)(O)O (stereo not shown) [G, 9-(Formylamino)-7-iodo-6-demethyl-6-deoxytetracycline sulfate] | 1 µg/mL | <0.015 µg/mL | 0.25 µg/mL | 4 µg/mL | 1 µg/mL | 0.5 µg/mL | 0.06 µg/mL | 1 µg/mL | 0.03 µg/mL |  | 1 µg/mL | 16 µg/mL | 0.03 µg/mL | >32 µg/mL | 32 µg/mL | 32 µg/mL | 0.5 µg/mL | 16 µg/mL
CC(=O)Nc1nc(C)c(S(=O)(=O)Nc2cc(N(C)C)c3c(c2O)C(=O)C2=C(O)C4(O)C(=O)C(C(N)=O)=C(O)C(N(C)C)C4CC2C3)s1 (stereo not shown) [GG, 9-[[[(2-Acetylamino)-4-methyl-5-thiazolyl]sulfonyl]amino]-7-(dimethylamino)-6-demethyl-6-deoxytetracycline] | 16 µg/mL (≈ 23.2 µM) | 4 µg/mL (≈ 5.79 µM) | 1 µg/mL (≈ 1.45 µM) | 32 µg/mL (≈ 46.3 µM) | >32 µg/mL | >32 µg/mL |  | 32 µg/mL (≈ 46.3 µM) | 2 µg/mL (≈ 2.9 µM) | 0.5 µg/mL (≈ 0.724 µM) | >32 µg/mL | 32 µg/mL (≈ 46.3 µM) | 2 µg/mL (≈ 2.9 µM) | >32 µg/mL | >32 µg/mL | 32 µg/mL (≈ 46.3 µM) | 4 µg/mL (≈ 5.79 µM) | 
CN(C)c1cc(NC(=O)C(F)(F)F)c(O)c2c1C[C@H]1C[C@H]3[C@H](N(C)C)C(O)=C(C(N)=O)C(=O)[C@@]3(O)C(O)=C1C2=O.O=S(=O)(O)O [I, 7-(Dimethylamino)-9-((trifluoroacetyl)amino]-g-demethyl-6-deoxytetracycline sulfate] | 16 µg/mL | 8 µg/mL | 8 µg/mL | 16 µg/mL | 32 µg/mL | 32 µg/mL | 0.5 µg/mL | 32 µg/mL | 8 µg/mL | 1 µg/mL | 32 µg/mL | 16 µg/mL | 4 µg/mL | >32 µg/mL |  | 32 µg/mL | 16 µg/mL | 16 µg/mL
